One assay concerns Wistar rats. To be noted: separated group of 8 rats, cited from earlier work.
A further assay relates to Tryptamine. In words: Combined Apomorphine, Tryptamine and Norepinephrine (ATN) test in rats: tryptamine part. Format: in vivo. The note with it: Rattus norvegicus.
Another assay has as its system Norepinephrine. In words: Combined Apomorphine, Tryptamine and Norepinephrine (ATN) test in rats: norepinephrine part. Format: in vivo. The note with it: Rattus norvegicus; read-out: Combined ATN test in rats ED₅₀ values (NOR). On the procedure:
(§1) Int. Pharmacodyn. Ther., 227, 238-253, 1977. Further the activity of the subject compounds as serotonin antagonists is evidenced by the experimental data obtained in the "Gastric Lesions induced by compound 48/80 in rats" test, described in U.S.-4,335,127. […] All tests were carried out following the procedures described in the cited references and the experimental data are shown in Table 8.

Assay [1] has as its system compound 48/80. Put plainly: Gastric Lesions induced by compound 48/80 in rats (serotonin antagonism). Format: in vivo. The note with it: Rattus norvegicus, read-out: Compound 48/80 tests ED₅₀ values Gastric lesions. As for the experimental part:
as §1

Assay [2] concerns compound 48/80. Put plainly: Protection of Rats from compound 48/80 induced lethality (antihistaminic activity). To be noted: Rattus norvegicus, read-out: Compound 48/80 tests ED₅₀ values Lethality. Format: in vivo. As for the experimental part:
as §1

For the next assay, the system named is Apomorphine. In words: Combined Apomorphine, Tryptamine and Norepinephrine (ATN) test in rats: apomorphine part. Format: in vivo. The note with it: Rattus norvegicus; read-out: Combined ATN test in rats ED₅₀ values (APO).

The values that follow come from patent publication EP0378255B1, “2-Aminopyrimidinone derivatives” (JANSSEN PHARMACEUTICA N.V., priority 1989, dated 1990).

Each structure is given as a SMILES string. Read-outs that look alike come from different tables or passages of the source.

In the case of `Cc1nc2sccn2c(=O)c1CCN1CCC(=C(c2ccc(F)cc2)c2ccc(F)cc2)CC1` [ritanserin, 6-[2-[4-[bis(4-fluorophenyl)methylene]-1-piperidinyl]ethyl]-7-methyl-5H-thiazolo[3,2-a]pyrimidin-5-one], in the assay on Wistar rats (0.63 mg/kg, for 8 h, at the expense of W, SWS1 and PS), the “effect on SWS2” value is “significant increase of SWS2”. Moreover, the “effects on sleep-wakefulness patterns” value in the assay on Wistar rats (doses of 0.04 and 0.16 mg/kg) is listed as “no major effects on sleep-wakefulness patterns”.

Regarding `Cc1nc2n(c(=O)c1CCN1CCN(c3noc4ccccc34)CC1)CCCN2C` [Compound 120], the ED50 in the assay with Tryptamine (convulsions, read-out: Combined ATN test in rats ED₅₀ values (TRY) convulsions) is 0.08 mg/kg; in the assay with Tryptamine (hyperaemia, read-out: Combined ATN test in rats ED₅₀ values (TRY) hyperaemia), 0.02 mg/kg; with Norepinephrine, 1.25 mg/kg; in the assay with compound 48/80 [1], 0.63 mg/kg; with compound 48/80 [2], 0.01 mg/kg; in the assay with Apomorphine it was 0.02 mg/kg.
